Laboratory results from patent publication US9649289B1, “Method and composition for treating dysbiosis and related disease states” (BioAvivus, LLT, priority 2016, dated 2017).

Test: Median particle size of salsalate before and after Microfluidics homogenizer passes
Assay type: physicochemical
Description: Using a Microfluidics® Homogenizer 40, passes with the device take the median particle size of salsalate FIG. 1 from about 40 microns down to about 2.4 microns, as shown in FIG. 2. The resulting salsalate is formulated into unit dose oral dosages, as noted above.

median particle size (after 40 passes with Microfluidics Homogenizer (micronized salsalate of the invention)): about 2.4 microns | median particle size (after 40 passes with Microfluidics Homogenizer (micronized salsalate of the invention), listed as Salsalate): 2.4 microns | median particle size (starting (regular) salsalate, before homogenization): about 40 microns
SMILES: O=C(Oc1ccccc1C(=O)O)c1ccccc1O [salsalate]
